System: diarrhea-predominant IBS subjects
Experiment: 3007 Study: open-label 52-week safety study, adverse events and withdrawals
Conditions: Study 3007

Compound: Cc1nccn1C[C@H]1CCc2c(c3cccc4c3n2CCC4)C1=O [cilansetron, (R)-(−)-4,5,6,8,9,10-hexahydro-10-[(2-methyl-1H-imidazol-1-yl)methyl]-11H-pyrido-[3,2,1-jk]-carbazol-11-one]
- SAE: Hepatobiliary Disorders (P/C): 0 n (%)
- SAE: Immune System Disorders (P/C): 1 (<1%) n (%)
- SAE: Infections and Infestations (P/C): 2 (<1%) n (%)
- SAE: Injury, Poisoning and Procedural Complications (P/C): 0 n (%)
- SAE: Irritable Bowel Syndrome Aggravated (P/C): 0 n (%)
- SAE: Leiomyoma NOS (P/C): 0 n (%)
- SAE: Loss of Consciousness (P/C): 0 n (%)
- SAE: Myocardial Infarction (P/C): 0 n (%)
- SAE: Neoplasms Benign, Malignant and Unspecified (Incl Cysts and Polyps) (P/C): 3 (1%) n (%)
- SAE: Nervous System Disorders (P/C): 0 n (%)
- SAE: Non-Accidental Overdose (P/C): 0 n (%)
- SAE: Ovarian Cancer NOS* (P/C): 0 n (%)
- SAE: Ovarian Cystadenofibroma* (P/C): 1 (<1%) n (%)
- SAE: Pregnancy NOS* (P/C): 0 n (%)
- SAE: Pregnancy, Puerperium and Perinatal Conditions (P/C): 0 n (%)
- SAE: Psychiatric Disorders (P/C): 1 (<1%) n (%)
- SAE: Psychotic Disorder NOS (P/C): 1 (<1%) n (%)
- SAE: Renal and Urinary Disorders (P/C): 1 (<1%) n (%)
- SAE: Reproductive System and Breast Disorders (P/C): 0 n (%)
- SAE: Respiratory, Thoracic and Mediastinal Disorders (P/C): 1 (<1%) n (%)
- SAE: Sinusitis Acute NOS (P/C): 1 (<1%) n (%)
- SAE: Status Epilepticus (P/C): 0 n (%)
- SAE: Suicidal Ideation (P/C): 1 (<1%) n (%)
- SAE: Supraventricular Tachycardia (P/C): 1 (<1%) n (%)
- SAE: Urinary Tract Infection NOS (P/C): 1 (<1%) n (%)
- SAE: Uterine Polyp NOS* (P/C): 0 n (%)
- SAE: Vaginal Cyst* (P/C): 0 n (%)
- TEAEs that led to permanent discontinuation of study medication (P/C): 18%
- Total Number of Subjects with at Least One Serious Adverse Event (P/C): 10 (4%) n (%)
- subjects with at least one TEAE (P/C): 78%
- subjects with at least one treatment-emergent SAE (P/C): 4%
- withdrawal for AE (P/C): 17%
- withdrawal for lack of efficacy (P/C): 21%
- Number of deaths (P/C (N = 279)): 0 n (%)
- Number of subjects who permanently discontinued study medication due to a TEAE (as reported on the AE CRF) (P/C (N = 279)): 50 (18) n (%)
- Number of subjects with at least one AE of special interest (P/C (N = 279)): 185 (66) n (%)
- Number of subjects with at least one SAE (P/C (N = 279)): 10 (4) n (%)
- Number of subjects with at least one TEAE (P/C (N = 279)): 217 (78) n (%)
- Number of subjects with at least one TEAE leading to dose reduction (P/C (N = 279)): 4 (1) n (%)
- Number of subjects with at least one related TEAE (P/C (N = 279)): 150 (54) n (%)
- Number of subjects with at least one severe TEAE (P/C (N = 279)): 44 (16) n (%)
- Number of subjects who died (P/C, all enrolled): 0 n (%)
- Primary reason for withdrawal: Adverse event and lack of efficacy (P/C, all enrolled): 34 (12) n (%)
- Primary reason for withdrawal: Baseline complaint/adverse event (P/C, all enrolled): 14 (5) n (%)
- Primary reason for withdrawal: Lack of efficacy (P/C, all enrolled): 25 (9) n (%)
- TEAE incidence: blood CK increased (female subjects): 1%
- TEAE incidence: constipation (female subjects): 28%
- TEAE incidence: diarrhea excluding infective (female subjects): 9%
- TEAE incidence: nausea and vomiting symptoms (female subjects): 8%
- TEAE incidence: sinusitis NOS (female subjects): 9%
- TEAE incidence: urinary tract infections (female subjects): 8%
- prevalence of constipation overall (fifth (>12 months) interval): 3%
- prevalence of TEAEs overall (first three-month interval): 62%
- prevalence of constipation overall (first three-month interval): 17%
- subjects discontinued due to AEs (first three-month interval): 7%
- prevalence of TEAEs overall (fourth three-month interval): 54%
- prevalence of constipation overall (fourth three-month interval): 2%
- subjects discontinued due to AEs (fourth three-month interval): 2%
- prevalence of TEAEs overall (last (>12 months) interval): 70%
- TEAE incidence: blood CK increased (male subjects): 12%
- TEAE incidence: constipation (male subjects): 15%
- TEAE incidence: diarrhea excluding infective (male subjects): 3%
- TEAE incidence: nausea and vomiting symptoms (male subjects): 3%
- TEAE incidence: sinusitis NOS (male subjects): 3%
- TEAE incidence: urinary tract infections (male subjects): 1%
- subjects who discontinued due to the SAEs (of 29 subjects with SAEs): Eleven
- subjects with at least one constipation episode reported as related to study medication (of the 128 subjects with constipation): 124 subjects
- SAE: Abdominal Pain Upper (overall): 1 (<1%) n (%)
- SAE: Adenomyosis* (overall): 1 (<1%) n (%)
- SAE: Angina Pectoris (overall): 2 (<1%) n (%)
- SAE: Appendicitis (overall): 1 (<1%) n (%)
- SAE: Asthma NOS (overall): 1 (<1%) n (%)
- SAE: Benign Ovarian Tumour* (overall): 1 (<1%) n (%)
- SAE: Bladder Prolapse (overall): 1 (<1%) n (%)
- SAE: Bone Neoplasm Malignant (overall): 1 (<1%) n (%)
- SAE: Breast Cancer NOS* (overall): 2 (<1%) n (%)
- SAE: Bronchopneumonia NOS (overall): 1 (<1%) n (%)
- SAE: Calculus Ureteric (overall): 1 (<1%) n (%)
- SAE: Cardiac Disorders (overall): 4 (<1%) n (%)
- SAE: Chest Pain (overall): 2 (<1%) n (%)
- SAE: Cholelithiasis (overall): 1 (<1%) n (%)
- SAE: Colitis Ischaemic (overall): 1 (<1%) n (%)
- SAE: Depression (overall): 1 (<1%) n (%)
- SAE: Endometriosis* (overall): 1 (<1%) n (%)
- SAE: Fibroma NOS (overall): 1 (<1%) n (%)
- SAE: Food Allergy (overall): 1 (<1%) n (%)
- SAE: Gastritis NOS (overall): 1 (<1%) n (%)
- SAE: Gastroenteritis NOS (overall): 1 (<1%) n (%)
- SAE: Gastrointestinal Disorders (overall): 4 (<1%) n (%)
- SAE: General Disorders and Administration Site Conditions (overall): 2 (<1%) n (%)
- SAE: Hallucination NOS (overall): 1 (<1%) n (%)
- SAE: Hallucination, Auditory (overall): 1 (<1%) n (%)
- SAE: Heat Exhaustion (overall): 1 (<1%) n (%)
- SAE: Hepatitis NOS (overall): 1 (<1%) n (%)
- SAE: Hepatobiliary Disorders (overall): 2 (<1%) n (%)
- SAE: Immune System Disorders (overall): 1 (<1%) n (%)
- SAE: Infections and Infestations (overall): 3 (<1%) n (%)
- SAE: Injury, Poisoning and Procedural Complications (overall): 2 (<1%) n (%)
- SAE: Irritable Bowel Syndrome Aggravated (overall): 1 (<1%) n (%)
- SAE: Leiomyoma NOS (overall): 1 (<1%) n (%)
- SAE: Loss of Consciousness (overall): 2 (<1%) n (%)
- SAE: Myocardial Infarction (overall): 1 (<1%) n (%)
- SAE: Neoplasms Benign, Malignant and Unspecified (Incl Cysts and Polyps) (overall): 6 (1%) n (%)
- SAE: Nervous System Disorders (overall): 2 (<1%) n (%)
- SAE: Non-Accidental Overdose (overall): 1 (<1%) n (%)
- SAE: Ovarian Cancer NOS* (overall): 1 (<1%) n (%)
- SAE: Ovarian Cystadenofibroma* (overall): 1 (<1%) n (%)
- SAE: Pregnancy NOS* (overall): 1 (<1%) n (%)
- SAE: Pregnancy, Puerperium and Perinatal Conditions (overall): 1 (<1%) n (%)
- SAE: Psychiatric Disorders (overall): 1 (<1%) n (%)
- SAE: Psychotic Disorder NOS (overall): 1 (<1%) n (%)
- SAE: Renal and Urinary Disorders (overall): 2 (<1%) n (%)
- SAE: Reproductive System and Breast Disorders (overall): 2 (<1%) n (%)
- SAE: Respiratory, Thoracic and Mediastinal Disorders (overall): 1 (<1%) n (%)
- SAE: Sinusitis Acute NOS (overall): 1 (<1%) n (%)
- SAE: Status Epilepticus (overall): 1 (<1%) n (%)
- SAE: Suicidal Ideation (overall): 1 (<1%) n (%)
- SAE: Supraventricular Tachycardia (overall): 1 (<1%) n (%)
- SAE: Urinary Tract Infection NOS (overall): 1 (<1%) n (%)
- SAE: Uterine Polyp NOS* (overall): 1 (<1%) n (%)
- SAE: Vaginal Cyst* (overall): 1 (<1%) n (%)
- TEAE incidence: GI disorders (overall): 50%
- TEAE incidence: Infections and infestations (overall): 32%
- TEAE incidence: Investigations (overall): 24%
- TEAE incidence: Musculoskeletal and connective tissue disorders (overall): 16%
- TEAE incidence: Nervous system disorders (overall): 12%
- TEAE incidence: abdominal pain NOS (overall): 7%
- TEAE incidence: back pain (overall): 3%
- TEAE incidence: blood CK increased (overall): 5%
- TEAE incidence: constipation (overall): 24%
- TEAE incidence: diarrhea NOS (overall): 6%
- TEAE incidence: fecal occult blood positive (overall): 6%
- TEAE incidence: flatulence (overall): 5%
- TEAE incidence: headache NOS (overall): 6%
- TEAE incidence: nasopharyngitis (overall): 5%
- TEAE incidence: nausea (overall): 5%
- TEAE incidence: sinusitis NOS (overall): 7%
- TEAE incidence: upper respiratory tract infection NOS (overall): 5%
- TEAE incidence: urinary tract infection NOS (overall): 5%
- TEAEs that led to dose reduction (overall): 2%
- TEAEs that led to permanent discontinuation: GI disorders (overall): 12%
- TEAEs that led to permanent discontinuation: abdominal pain NOS (overall): 2%
- TEAEs that led to permanent discontinuation: diarrhea NOS (overall): 1%
- TEAEs that led to permanent discontinuation: flatulence (overall): 1%
- Total Number of Subjects with at Least One Serious Adverse Event (overall): 29 (5%) n (%)
- discontinued study medication due to constipation (overall): 5%
- dose reduction due to constipation (overall): 1%
- overall incidence of TEAEs possibly, probably, or unlikely related to study medication (overall): 56%
- related TEAE: abdominal pain NOS (overall): 6%
- related TEAE: blood CK increased (overall): 3%
- related TEAE: constipation (overall): 23%
- related TEAE: diarrhea NOS (overall): 3%
- related TEAE: fecal occult blood positive (overall): 3%
- related TEAE: flatulence (overall): 4%
- related TEAE: headache NOS (overall): 4%
- related TEAE: nausea (overall): 3%
- severe TEAE: abdominal pain NOS (overall): 2%
- severe TEAE: constipation (overall): 3%
- severe TEAE: headache NOS (overall): 1%
- special interest TEAEs (overall): 69%
- subjects with at least one TEAE (overall): 82%
- subjects with severe TEAEs (overall): 18%
- withdrawal for AE (combined categories) (overall): 15%
- withdrawal for lack of efficacy (combined categories) (overall): 18%
- prevalence of TEAEs overall (second three-month interval): 55%
- prevalence of constipation overall (second three-month interval): 9%
- subjects discontinued due to AEs (second three-month interval): 6%
- prevalence of TEAEs overall (third three-month interval): 54%
- prevalence of constipation overall (third three-month interval): 5%
- subjects discontinued due to AEs (third three-month interval): 2%

— patent US20070093520A1, “Method of treatment of diarrhea-predominant irritable bowel syndrome in a subject” (priority 2005, published 2007)
